In patent US20230201632A1, “METHODS FOR FIXING HAIR AND SKIN” (Olaplex, Inc., priority 2013, published 2023):

Legend:
[1] = Hair breakage after repeated perm, visual inspection; set-up: species or system human; conditions: perm procedure repeated three times over 48 hours
Protocol: Two hair samples were obtained. Both samples were treated with dithiothreitol or ammonium thioglycolate as described in Example 1. One of the hair samples was subsequently treated with the binding formulation, while the other was neutralized with hydrogen peroxide. The process was completed the same day for the hair treated with the binding formulation. The process was completed in three days with hydrogen peroxide (traditional perm).
The procedure was repeated three times for each hair sample over a 48 hour time period.

[2] = Perm of hair with binding formulation or hydrogen peroxide, 40 wash and dry cycles; set-up: species or system human; conditions: after 40 cycles of washing and drying with the same shampoo and conditioner; hair reduced with ammonium thioglycolate or dithiothreitol
Protocol: Hair samples were obtained from a human subject and cut in ½ inch wide wefts.
Reducing agents: Ammonium thioglycolate (ATG) was obtained from a permanent wave kit manufactured by Zotos. 300 mg of Dithiothreitol in a 10 g solution was also used as the reducing agent.
Binding formulation: A bismaleate binding agent 2,2′-(ethane-1,2-diylbis(oxy))bis(ethan-1-amine) di-maleate at a concentration of 300 mg in 10 g total solution (water) was used.
The hair was washed with clarifying shampoo, towel dried, and then rolled around a perm rod. Ammonium thioglycolate or dithiothreitol was then applied to the hair and left on the hair for 10 minutes to 1 hour. The hair was then rinsed for 30 seconds to 1 minute and then blotted dry with a towel.
The binding formulation was applied to the hair, via a needle nose applicator, drenching the hair. The binding agent was left on the hair for a period of about 7.5 minutes. The hair was drenched for a second time with the binding formulation and left for a second 7.5 minutes, for a total of 15 minutes. The hair was then rinsed with water for about 1-2 minutes then unrolled from the perm rods. After the hair was removed from the perm rods, the hair was shampooed and conditioned with various salon shampoo and conditioner brands, including LiQWd® Hydrating Shampoo and Hydrating Conditioner. The washing and drying steps were repeated 40 times. […]

OO [hydrogen peroxide]
hair breakage upon visual inspection [1]: significant breakage
reduction in the overall curl [2]: only slight reduction in the overall curl
